According to PMC3693456 (Bioorganic & medicinal chemistry letters, 2008):

Biological target: CB1 receptor (Rattus norvegicus, UniProt P20272)
Format: binding
Details: rat brain membranes, PMSF; for CB1 receptor affinity (in words): qualitative statement

CB1 receptor, sequence (P20272 whole entry): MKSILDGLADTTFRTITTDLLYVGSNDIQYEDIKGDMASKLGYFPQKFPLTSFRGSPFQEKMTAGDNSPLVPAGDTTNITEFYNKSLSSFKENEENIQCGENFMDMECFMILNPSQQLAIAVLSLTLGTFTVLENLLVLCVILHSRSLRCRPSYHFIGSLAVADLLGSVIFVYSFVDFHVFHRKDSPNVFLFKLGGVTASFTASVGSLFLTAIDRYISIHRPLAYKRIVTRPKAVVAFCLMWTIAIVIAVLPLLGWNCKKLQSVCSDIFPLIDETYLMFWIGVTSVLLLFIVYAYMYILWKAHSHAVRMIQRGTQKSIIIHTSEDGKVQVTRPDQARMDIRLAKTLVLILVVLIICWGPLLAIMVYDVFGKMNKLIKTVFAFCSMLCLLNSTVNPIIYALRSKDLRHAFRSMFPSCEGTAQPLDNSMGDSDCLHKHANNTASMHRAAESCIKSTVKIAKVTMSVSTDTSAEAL

Row | Compound | CB1 receptor affinity (in words) | fold lower CB1 affinity compared to 7d (relative to 7d)
1 | C[C@H](CO)NC(=O)CCC/C=C\C/C=C\C/C=C\C/C=C\CCCCc1cccc2ccccc12 [7f] | loss of CB1 receptor affinity | 
2 | C[C@H](CO)NC(=O)CCC/C=C\C/C=C\C/C=C\C/C=C\CCCCCc1ccccc1 [7e] |  | over 5 fold
3 | C[C@H](CO)NC(=O)CCC/C=C\C/C=C\C/C=C\C/C=C\CCCCc1ccc(Br)cc1 [7n] | most potent analog | 
4 | C[C@H](CO)NC(=O)CCC/C=C\C/C=C\C/C=C\C/C=C\CCCCc1ccco1 [7q] | substantially weaker affinity | 
